# Assay results as given in patent publication US9642874B2, “Compositions of selenoorganic compounds and methods of use thereof” (Alltech, Inc., priority 2014, dated 2017).
# What was measured:
# [1] = test system: Insr; test: Insr mRNA expression (QRT-PCR) in AML-12 cells; type: cell-based, mouse; conditions: insulin alone, 6 hours, without 8-CPT/Dex
# Method: For RNA analysis of insulin receptor (Insr), insulin like growth factor receptor (Igf1r), and Glucose-6-Phosphatase (G6pc), AML-12 cells were amplified in ITS, Dex and FBS-containing DMEM/F12 media, and cultured on 24-well (6.7×10^4 cells/well) plates in 10% FBS ITS-free DMEM/F12 media with or without Dex overnight. These cells were treated with control (water) or various compounds (diluted in 10% FBS ITS-free DMEM/F12 media with or without Dex) for 6 hours, 24 hours, or 48 hours.
# In some experiments, the AML-12 cells were washed twice with PBS after the compound treatments for 24 hours, and then incubated with selenium compounds (150 or 300 ppb of each compound) in the presence or absence of insulin (10 or 100 nM), 0.1 mM 8-CPT (Sigma), or 0.5 μM Dex in serum-free, glucose/phenol red-free DMEM media supplemented with 20 mM lactose and 2 mM pyruvate, and 15 mM HEPES (glucose-production media) for another 6 hours. After treatments, cell media were collected and subjected to glucose assays using Abcam glucose assay kit according to the manufacturer's protocol. […]
# Total RNA from these cells was isolated using Trizol (Invitrogen) according to the manufacturer's protocol, and then incubated with DNase I to remove any potential contaminated genomic DNA. […] Three to six samples were analyzed in each treatment group. […]
# [2] = test system: AKT; test: Western blot of phosphorylated Akt in primary mouse hepatocytes; type: cell-based; conditions: 100 nM insulin 6 hours, or Compounds CDE both doses 24 hours + 6 hours
# Method: The overnight-acclimated hepatocytes were washed twice with PBS (to remove any residual FBS and other additives in the TRL hepatocyte maintenance medium, pretreated with control (water) or selenium Compounds CDE (150 or 300 ppb of each selenium compound) in DMEM/F12 media supplemented with 10% fetal bovine serum (FBS) for 24 hr. These cells were then washed twice with PBS and incubated with the same dose of selenium Compounds CDE (150 or 300 ppb) in the presence or absence of insulin (10 or 100 nM, Sigma), 0.1 mM 8-CPT (Sigma) or 0.5 μM Dex (Sigma) in serum-free and glucose-free DMEM media (Invitrogen) supplemented with 20 mM lactose (Sigma) and 2 mM pyruvate (Sigma) and 15 mM HEPES (Sigma) for another 6 hours. […]
# After the above described treatments, primary mouse hepatocytes were rinsed with ice-cold PBS and lysed in the ice-cold RIPA buffer containing complete proteinase and phosphatase inhibitors (Thermo-Fisher Scientific, Waltham, Mass.) on ice for 30 min Cell lysates were collected using a cell scraper and transfer pipette and then centrifuged at 12000×g for 30 min at 4° C. to remove the DNA pellet and obtain the protein extract. Protein levels in the supernatant of these cell lysates were determined using the Pierce Micro-BCA protein assay kit (Thermo Scientific-Piece Biotechnology, Rockford, Ill.) according to the manufacturer's protocol. […]
substance,measurement,setting,value
"insulin: insulin (10 or 100 nM, Sigma) used as comparator and cotreatment",Insr expression,[1],did not increase
same,pAktS473 protein level (in words),[2],significant increase
